Tests used:
Set-up in all cases: species or system Lederbergia lenta
Subtilisin BL [1] = molecular target: T1, Subtilisin BL (Bacillus lentus, UniProt P29599); assay: Competitive inhibition of Subtilisin BL wild type enzyme from Bacillus lentus
T1 sequence (P29599 whole entry): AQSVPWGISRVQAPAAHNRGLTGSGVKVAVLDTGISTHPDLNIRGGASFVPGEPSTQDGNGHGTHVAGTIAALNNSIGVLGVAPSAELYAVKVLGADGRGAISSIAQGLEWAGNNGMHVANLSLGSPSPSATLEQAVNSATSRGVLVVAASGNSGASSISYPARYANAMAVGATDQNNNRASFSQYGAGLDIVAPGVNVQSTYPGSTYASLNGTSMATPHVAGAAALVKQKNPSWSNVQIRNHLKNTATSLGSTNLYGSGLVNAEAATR

Subtilisin BL [2] = molecular target: Subtilisin BL (Bacillus lentus, UniProt P29599, M222S)
Subtilisin BL [3] = molecular target: Subtilisin BL (Bacillus lentus, UniProt P29599, M222C)

Row | SMILES | Ki (Subtilisin BL [1]) | Ki (Subtilisin BL [2]) | Ki (Subtilisin BL [3])
1 | COc1ccc(B(O)O)cc1 | 577 µM | 310 µM | 757 µM
2 | OB(O)c1ccc(Cl)cc1Cl | 9.2 µM | 8 µM | 18 µM
3 | OB(O)c1ccc(Br)cc1 | 23 µM | 10 µM | 23 µM
4 | OB(O)CCc1ccc(Cl)cc1 | 325 µM | 110 µM | 233 µM
5 | Nc1cccc(B(O)O)c1 | 150 µM | 73 µM | 204 µM
6 | OB(O)c1cccc(-c2ccccc2)c1 | 327 µM | 69 µM | 31 µM
7 | COc1ccc(CCB(O)O)cc1 | 986 µM | 219 µM | 314 µM
8 | OB(O)CCc1ccc2ccccc2c1 | 1580 µM | > 1000 µM | > 1000 µM
9 | OB(O)c1ccccc1 [PHENYLBORONIC ACID] | 141 µM | 96 µM | 155 µM

Reference: ChEMBL document CHEMBL1129206, “Probing the specificity of the S1 binding site of M222 mutants of subtilisin B. lentus with boronic acid inhibitors” (Bioorg Med Chem Lett, 1996)
